Results published in patent US9084813B2, “Agents that reduce neuronal overexcitation” (The J. David Gladstone Institutes, priority 2007, dated 2015).

How the values were obtained:
mice [1] = assay: Excitotoxicity assessment: PTZ-induced seizures; format: in vivo, mouse; settings: single i.p. injection 40 mg/kg
Procedure: (§1) Drugs were dissolved in PBS and delivered by intraperitoneal injection. Pentylenetetrazole (PTZ, Sigma, St. Louis, Mo.) was used at a concentration of 5 mg/ml and a dose of 40 mg/kg. Kainate (Tocris, Ellisville, Mo.) was used at a concentration of 2 mg/ml and doses ranging from 20-40 mg/kg. For mice given PTZ, each mouse was placed in a cage and observed for 20 min after administration, with video recording. An investigator blinded to genotype analyzed the videotapes to quantify the time course and severity of seizures according to published scales (9, 10). Seizures severity scores were: 0=normal behavior; 1=immobility; 2=generalized spasm, tremble, or twitch; 3=tail extension; 4=forelimb clonus; 5=generalized clonic activity; 6=bouncing or running seizures; 7=full tonic extension; 8=death. For mice given KA, each mouse was placed in a cage and observed for 3 hours after administration. An investigator blinded to genotype quantified the time course and severity of seizures according to published scales (11); the percentage of mice attaining stage 6 (generalized tonic-clonic seizures) is presented.
A value of P<0.05 was considered significant. Error bars represent standard error of the mean. Survival data (FIG. 2E) was analyzed with Kaplan-Meier statistics and post-hoc log rank tests. Fisher's exact test was used to analyze occurrence of fatal status epilepticus after PTZ injection. Logistic regression was used to generate and compare dose-response curves for the proportion of mice seizing after KA administration (FIG. 4D). For other experiments, genotype differences were analyzed by ANOVA (repeated measures where indicated), using the Tukey test for post-hoc comparisons.

mice [2] = assay: Excitotoxicity assessment: kainate-induced seizures; format: in vivo, mouse; settings: Tau^+/+ mice, single i.p. injection, 20-40 mg/kg, age 2-5 months
Procedure: as §1
A value of P<0.05 was considered significant. […] Survival data (FIG. 2E) was analyzed with Kaplan-Meier statistics and post-hoc log rank tests. […] For other experiments, genotype differences were analyzed by ANOVA (repeated measures where indicated), using the Tukey test for post-hoc comparisons.

SMILES	mice suffering fatal status epilepticus (mice [1]; hAPP/Tau^+/+ mice, age 4-7 months) [%]	death after PTZ (mice [1]; hAPP/Tau^+/− and hAPP/Tau^−/− mice)	lethality of the dose (mice [1]; mice without hAPP)	induction of generalized tonic-clonic seizures (mice [2])
C1CCc2nnnn2CC1 [PTZ, Pentylenetetrazole]	20	no hAPP/Tau^+/− or hAPP/Tau^−/− mice died	non-lethal	–
C=C(C)[C@H]1CN[C@H](C(=O)O)[C@H]1CC(=O)O [kainate, Kainate]	–	–	–	dose-dependently induced seizures
